In general, Ki refers to the equilibrium dissociation constant of an inhibitor or competing ligand from its target. Higher therefore signals weaker binding.

The test deals with T1, human A3AR (Homo sapiens, UniProt P0DMS8).
T1 sequence (P0DMS8 1-318): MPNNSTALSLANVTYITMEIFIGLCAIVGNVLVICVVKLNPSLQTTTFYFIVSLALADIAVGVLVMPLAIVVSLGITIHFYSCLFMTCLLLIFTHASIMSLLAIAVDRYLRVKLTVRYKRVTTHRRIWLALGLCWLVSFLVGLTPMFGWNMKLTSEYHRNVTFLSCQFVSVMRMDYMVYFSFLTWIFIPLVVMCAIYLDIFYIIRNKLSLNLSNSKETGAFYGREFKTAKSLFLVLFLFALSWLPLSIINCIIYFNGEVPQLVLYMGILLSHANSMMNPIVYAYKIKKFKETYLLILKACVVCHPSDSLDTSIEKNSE
In kind it is binding.

For `COc1nc(N)c2ncn([C@H]3[C@H](O)[C@H](O)[C@]4(CO)C[C@H]34)c2n1` [Compound 8g, (1R,2R,3S,4R,5S)-4-(6-Amino-2-methoxy-9H-purin-9-yl)-1-(hydroxymethyl)bicyclo[3.1.0]hexane-2,3-diol], the affinity corresponds to a Ki of 1140 ± 84 nM.
For `CCSc1nc(N)c2ncn([C@H]3[C@H](O)[C@H](O)[C@]4(CO)C[C@H]34)c2n1` [Compound 8b, (1R,2R,3S,4R,5S)-4-(6-Amino-2-(ethylthio)-9H-purin-9-yl)-1-(hydroxymethyl)bicyclo[3.1.0]hexane-2,3-diol], the Ki was found to be 970 ± 60 nM.
The same measure, in the same setting: with `Nc1nc(SCCc2ccccc2)nc2c1ncn2[C@H]1[C@H](O)[C@H](O)[C@]2(CO)C[C@H]12` [Compound 8f, (1R,2R,3S,4R,5S)-4-(6-Amino-2-(phenethylthio)-9H-purin-9-yl)-1-(hydroxymethyl)bicyclo[3.1.0]hexane-2,3-diol] the figure was 291 ± 89 nM.
On the same count and under the same terms, then `CCCCCCSc1nc(N)c2ncn([C@H]3[C@H](O)[C@H](O)[C@]4(CO)C[C@H]34)c2n1` [Compound 8c, (1R,2R,3S,4R,5S)-4-(6-Amino-2-(hexylthio)-9H-purin-9-yl)-1-(hydroxymethyl)bicyclo[3.1.0]hexane-2,3-diol], with 548 ± 44 nM; and `Nc1nc(SC2CCCCC2)nc2c1ncn2[C@H]1[C@H](O)[C@H](O)[C@]2(CO)C[C@H]12` [Compound 8d, (1R,2R,3S,4R,5S)-4-(6-Amino-2-(cyclohexylthio)-9H-purin-9-yl)-1-(hydroxymethyl)bicyclo[3.1.0]hexane-2,3-diol], with 1080 ± 90 nM.
For `Nc1nc(SCc2ccccc2)nc2c1ncn2[C@H]1[C@H](O)[C@H](O)[C@]2(CO)C[C@H]12` [Compound 8e, (1R,2R,3S,4R,5S)-4-(6-Amino-2-(benzylthio)-9H-purin-9-yl)-1-(hydroxymethyl)bicyclo[3.1.0]hexane-2,3-diol], the Ki was found to be 49.8 ± 5.5 nM. The “fold higher A3AR affinity than 8a” value (ratio of Ki values vs 8a at hA3AR) was found to be 30 fold.

Values taken from article PMC9037833 (RSC Advances, 2021).
